Experimental data as given in ChEMBL document CHEMBL6134910, “Discovery of a New Class of Orexin 2 Receptor Agonists as a Potential Treatment for Narcolepsy” (J Med Chem, 2025).

Biological target: T1, Orexin/Hypocretin receptor type 1 (Homo sapiens, UniProt O43613)
T1 sequence (O43613 whole entry): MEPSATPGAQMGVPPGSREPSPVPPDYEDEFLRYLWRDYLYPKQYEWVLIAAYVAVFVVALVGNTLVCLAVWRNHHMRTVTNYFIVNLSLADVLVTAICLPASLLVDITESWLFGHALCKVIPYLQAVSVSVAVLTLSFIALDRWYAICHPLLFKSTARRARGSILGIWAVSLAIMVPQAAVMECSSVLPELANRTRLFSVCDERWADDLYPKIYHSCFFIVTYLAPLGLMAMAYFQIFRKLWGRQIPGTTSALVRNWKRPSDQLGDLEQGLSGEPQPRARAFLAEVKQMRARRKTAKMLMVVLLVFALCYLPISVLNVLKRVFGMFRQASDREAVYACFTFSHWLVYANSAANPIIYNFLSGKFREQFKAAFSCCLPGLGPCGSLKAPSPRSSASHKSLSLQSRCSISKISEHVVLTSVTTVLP
Experiment: Agonist activity at human OX1 receptor expressed in HEK293 cells assessed as IP-1 accumulation incubated for […] by HTRF IP-one Gq detection assay
Type: functional, cell-based

Row | EC50 [µM] | Structure (SMILES)
1 | > 20 | Cn1nnc(-c2oncc2CC(=O)N(C2CC3(CC3)C2)[C@@H](C(=O)NC23CC(C)(C2)C3)c2cc(F)ccc2F)n1
2 | > 20 | Cn1nnc(-c2c(CC(=O)N(C3CC4(CC4)C3)[C@@H](C(=O)NC34CC(C)(C3)C4)c3ccccc3Cl)cnn2C)n1

Biological target: Cytochrome P450 2C9 (Homo sapiens, UniProt P11712)
Experiment: Inhibition of CYP2C9 in human liver microsome using diclofenac as substrate incubated for 6 mins by LC-MS/MS analysis
Type: ADME, microsomes

Sequence of Cytochrome P450 2C9 (P11712 whole entry): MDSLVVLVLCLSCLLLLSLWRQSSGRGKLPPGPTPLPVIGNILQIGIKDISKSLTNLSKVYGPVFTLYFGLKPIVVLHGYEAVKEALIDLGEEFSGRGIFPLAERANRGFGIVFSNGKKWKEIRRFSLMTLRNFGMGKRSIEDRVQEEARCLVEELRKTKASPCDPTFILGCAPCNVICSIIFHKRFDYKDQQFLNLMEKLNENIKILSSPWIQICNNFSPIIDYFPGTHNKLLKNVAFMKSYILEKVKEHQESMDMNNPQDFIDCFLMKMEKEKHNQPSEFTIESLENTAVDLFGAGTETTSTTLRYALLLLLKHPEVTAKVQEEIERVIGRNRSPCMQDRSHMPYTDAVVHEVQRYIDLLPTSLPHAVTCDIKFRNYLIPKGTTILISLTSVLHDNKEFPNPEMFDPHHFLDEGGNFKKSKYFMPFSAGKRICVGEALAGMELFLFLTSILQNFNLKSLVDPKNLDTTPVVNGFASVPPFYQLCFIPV

Row | IC50 [µM] | Structure (SMILES)
3 | 24 | Cn1nnc(-c2oncc2CC(=O)N(C2CC3(CC3)C2)[C@@H](C(=O)NC23CC(C)(C2)C3)c2cc(F)ccc2F)n1
4 | 20 | Cn1nnc(-c2c(CC(=O)N(C3CC4(CC4)C3)[C@@H](C(=O)NC34CC(C)(C3)C4)c3ccccc3Cl)cnn2C)n1

Biological target: Cytochrome P450 3A4 (Homo sapiens, UniProt P08684)
Experiment: Inhibition of CYP3A4 in human liver microsome using testosterone as substrate incubated for 7 mins
Type: ADME, microsomes

Sequence of Cytochrome P450 3A4 (P08684 whole entry): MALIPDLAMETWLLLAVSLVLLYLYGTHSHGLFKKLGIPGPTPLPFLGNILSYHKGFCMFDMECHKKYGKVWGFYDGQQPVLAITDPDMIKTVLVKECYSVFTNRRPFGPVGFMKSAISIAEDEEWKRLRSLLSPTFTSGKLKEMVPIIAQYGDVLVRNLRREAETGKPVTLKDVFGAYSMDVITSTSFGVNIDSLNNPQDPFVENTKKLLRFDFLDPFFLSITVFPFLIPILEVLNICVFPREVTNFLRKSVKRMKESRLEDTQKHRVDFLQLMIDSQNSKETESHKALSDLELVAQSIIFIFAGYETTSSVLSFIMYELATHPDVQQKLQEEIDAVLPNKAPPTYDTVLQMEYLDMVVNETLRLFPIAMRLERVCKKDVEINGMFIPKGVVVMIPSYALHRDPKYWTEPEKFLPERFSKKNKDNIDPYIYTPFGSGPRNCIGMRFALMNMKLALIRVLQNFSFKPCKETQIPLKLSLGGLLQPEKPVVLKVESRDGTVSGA

Row | Structure (SMILES) | IC50 [µM]
5 | Cn1ncc(CC(=O)N(C2CCCC2)[C@@H](C(=O)NC23CC(C)(C2)C3)c2ccccc2)c1-n1nccn1 | 4
6 | Cn1ncc(CC(=O)N(C2CCCC2)C(C(=O)NC23CC(C)(C2)C3)c2ccccc2)c1-c1ncccn1 (centres undefined) | 6.8
7 | Cn1ncc(CC(=O)N(C2CCCC2)C(C(=O)NC23CC(C)(C2)C3)c2ccccc2)c1-c1coc(C2CC2)n1 (centres undefined) | 4.2
8 | Cn1nnc(-c2c(CC(=O)N(C3CCCC3)C(C(=O)NC34CC(C)(C3)C4)c3ccccc3)cnn2C)n1 (centres undefined) | 12
9 | O=C(NC1CCCCC1)[C@@H](c1ccccc1)N(C[C@H]1CCCO1)C(=O)Cn1cncc1-c1ccccc1 | 0.25
10 | CC12CC(NC(=O)[C@@H](c3ccccc3)N(C(=O)Cc3cnn(C(F)F)c3-c3ccccc3)C3CCCC3)(C1)C2 | 2
11 | CC12CC(NC(=O)[C@@H](c3ccccc3)N(C(=O)Cn3cnc(Cl)c3-c3ccccc3)C3CCCC3)(C1)C2 | 18
12 | O=C(NC1CCCCC1)[C@@H](c1ccccc1)N(C[C@H]1CCCO1)C(=O)Cn1cnc2ccccc21 | 10
13 | CC12CC(NC(=O)[C@@H](c3ccccc3)N(C(=O)Cc3cnoc3-c3ccccc3)C3CCCC3)(C1)C2 | 1.9
14 | Cn1ncc(CC(=O)N(C2CCCC2)C(C(=O)NC23CC(C)(C2)C3)c2ccccc2)c1-c1ccc(F)cc1F (centres undefined) | 1.6

The next lines start with the values.

Row | IC50 [µM] | Structure (SMILES)
15 | 1.6 | CC12CC(NC(=O)[C@@H](c3ccccc3)N(C(=O)Cc3cnnn3-c3ccccc3)C3CCCC3)(C1)C2
16 | 7 | Cn1ncc(CC(=O)N(C2CCCC2)C(C(=O)NC23CC(C)(C2)C3)c2ccccc2)c1-c1c(F)cccc1F (centres undefined)
17 | 1.4 | Cc1nsc(CC(=O)N(C2CCCC2)[C@@H](C(=O)NC23CC(C)(C2)C3)c2ccccc2)c1-c1ccccc1
18 | 7.6 | Cn1ncc(CC(=O)N(C2CCCC2)[C@@H](C(=O)NC23CC(C)(C2)C3)c2ccccc2)c1-c1cccnc1
19 | 1 | CC(C)N(C(=O)Cc1cnn(C)c1-c1ccccc1)[C@@H](c1cn(C23CC(C)(C2)C3)nn1)c1cc(F)ccc1F
20 | 0.3 | CC(C)N(C(=O)Cc1cnn(C)c1-c1ccccc1)[C@@H](C(=O)NC12CC(C)(C1)C2)c1cc(F)ccc1F
21 | 7.3 | Cc1ncn(CC(=O)N(C2CCCC2)[C@@H](C(=O)NC23CC(C)(C2)C3)c2ccccc2)c1-c1ccccc1
22 | 0.9 | COc1cccc(-c2c(CC(=O)N(C3CCCC3)C(C(=O)NC34CC(C)(C3)C4)c3ccccc3)cnn2C)c1F (centres undefined)
23 | 1.5 | COc1cccc(-c2c(CC(=O)N(C3CCCC3)C(C(=O)NC34CC(C)(C3)C4)c3ccccc3)cnn2C)c1 (centres undefined)
24 | 5 | Cn1ncc(CC(=O)N(C2CCCC2)[C@@H](C(=O)NC23CC(C)(C2)C3)c2ccccc2)c1-c1ccccc1
25 | 2.5 | Cn1ccc(-c2c(CC(=O)N(C3CCCC3)C(C(=O)NC34CC(C)(C3)C4)c3ccccc3)cnn2C)n1 (centres undefined)
26 | 7.3 | Cc1ncn(CC(=O)N(C[C@H]2CCCO2)[C@@H](C(=O)NC2CCCCC2)c2ccccc2)c1-c1ccccc1

Biological target: T2, Orexin receptor type 2 (Homo sapiens, UniProt O43614)
T2 sequence (O43614 whole entry): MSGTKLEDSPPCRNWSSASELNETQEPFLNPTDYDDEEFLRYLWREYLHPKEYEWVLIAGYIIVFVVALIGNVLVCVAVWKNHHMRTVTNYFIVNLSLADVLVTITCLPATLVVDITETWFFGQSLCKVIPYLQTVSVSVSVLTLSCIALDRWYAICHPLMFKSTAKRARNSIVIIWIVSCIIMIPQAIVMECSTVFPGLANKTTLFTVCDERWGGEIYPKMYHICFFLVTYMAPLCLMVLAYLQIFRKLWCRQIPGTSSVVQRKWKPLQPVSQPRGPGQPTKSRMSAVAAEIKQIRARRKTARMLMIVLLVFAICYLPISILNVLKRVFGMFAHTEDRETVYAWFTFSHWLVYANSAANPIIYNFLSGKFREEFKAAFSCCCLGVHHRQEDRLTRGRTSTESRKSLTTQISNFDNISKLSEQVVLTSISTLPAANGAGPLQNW
Experiment: Agonist activity at human OX2 receptor expressed in HEK293 cells assessed as IP-1 accumulation incubated for […] by HTRF IP-one Gq detection assay
Type: functional, cell-based

Row | EC50 [µM] | Structure (SMILES)
27 | > 20 | Cn1ncc(CC(=O)N(C2CCCC2)C(C(=O)NC23CC(C)(C2)C3)C2CCCC2)c1-c1ccccc1 (centres undefined)

Biological target: Cytochrome P450 2D6 (Homo sapiens, UniProt P10635)
Experiment: Inhibition of CYP2D6 in human liver microsome using dextrometorphan as substrate incubated for 30 mins by LC-MS/MS analysis
Type: ADME, microsomes

Sequence of Cytochrome P450 2D6 (P10635 whole entry): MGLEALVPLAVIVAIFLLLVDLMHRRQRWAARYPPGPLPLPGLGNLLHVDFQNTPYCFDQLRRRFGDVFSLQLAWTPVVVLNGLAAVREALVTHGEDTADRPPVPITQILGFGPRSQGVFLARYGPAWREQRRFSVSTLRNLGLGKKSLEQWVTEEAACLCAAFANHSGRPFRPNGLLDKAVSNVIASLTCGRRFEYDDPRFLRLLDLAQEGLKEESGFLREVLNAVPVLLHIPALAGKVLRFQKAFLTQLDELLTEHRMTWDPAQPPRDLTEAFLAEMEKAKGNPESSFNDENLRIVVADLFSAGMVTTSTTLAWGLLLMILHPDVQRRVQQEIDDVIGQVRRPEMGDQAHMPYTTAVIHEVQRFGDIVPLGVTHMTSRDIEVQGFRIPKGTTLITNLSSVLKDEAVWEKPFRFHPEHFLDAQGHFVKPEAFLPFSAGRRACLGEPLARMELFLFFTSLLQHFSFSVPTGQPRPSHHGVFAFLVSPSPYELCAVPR

Row | IC50 [µM] | Structure (SMILES)
28 | 20 | Cn1nnc(-c2oncc2CC(=O)N(C2CC3(CC3)C2)[C@@H](C(=O)NC23CC(C)(C2)C3)c2cc(F)ccc2F)n1
29 | 5.3 | Cn1nnc(-c2c(CC(=O)N(C3CC4(CC4)C3)[C@@H](C(=O)NC34CC(C)(C3)C4)c3ccccc3Cl)cnn2C)n1
